Measured values reported in article PMC6522510 (Nature Communications, 2019).
Structures can show the parent of a compound that is named as a salt. Where two headings read alike, the source gives them in different places.

How the values were obtained:
Parameters in all cases: species or system AML cell lines (8); Primary HTS, single concentration about 10 uM, Cell Titer Glo viability; log10 luminescence, per cent inhibition relative to cycloheximide control
Settings in all cases: 72 h, relative to cycloheximide control, log10 luminescence, inhibitor
CMS = test system: CMS
U937 = test system: U937
ML-2 = test system: ML-2
M07e = test system: M07e
MOLM-13 = test system: MOLM-13
CMK = test system: CMK
MV4-11 = test system: MV4-11
CHRF288-11 = test system: CHRF288-11

SMILES	CMS %inh (CMS; CMS %inh, 10 µM) [%]	U937 %inh (U937; U937 %inh, 10 µM) [%]	ML-2 %inh (ML-2; ML-2 %inh, 10 µM) [%]	M07e %inh (M07e; M07e %inh, 10 µM) [%]	MOLM-13 %inh (MOLM-13; MOLM-13 %inh, 10 µM) [%]	CMK %inh (CMK; CMK %inh, 10 µM) [%]	MV4-11 %inh (MV4-11; MV4-11 %inh, 10 µM) [%]	CHRF288-11 %inh (CHRF288-11; CHRF288-11 %inh, 10 µM) [%]	CMS %inh (CMS) [%]	U937 %inh (U937) [%]	ML-2 %inh (ML-2) [%]	M07e %inh (M07e) [%]	MOLM-13 %inh (MOLM-13) [%]	CMK %inh (CMK) [%]	MV4-11 %inh (MV4-11) [%]	CHRF288-11 %inh (CHRF288-11) [%]
CCOc1cc(CC(=O)N[C@@H](CC(C)C)c2ccccc2N2CCCCC2)ccc1C(=O)O [SJ000287528-2, REPAGLINIDE]	0.05176	-2.093	3.177	3.133	-0.4831	-2.471	0.6192	3.798								
CCOc1cc(CC(=O)N[C@@H](CC(C)C)c2ccccc2N2CCCCC2)ccc1C(=O)O [SJ000287528-3, REPAGLINIDE]	-3.811	0.8964	-0.6814	1.002	1.863	-1.863	-2.004	0.4521								
CCN[C@H]1C[C@H](C)S(=O)(=O)c2sc(S(N)(=O)=O)cc21 [SJ000287570-2, DORZOLAMIDE HYDROCHLORIDE]									-2.24	2.321	-0.8167	-0.4811	5.665	0.1634	-1.46	-4.447
NS(=O)(=O)c1cc2c(cc1Cl)NC(C1CC3C=CC1C3)NS2(=O)=O (stereo not drawn) [SJ000287770-4, CYCLOTHIAZIDE]									2.052	3.095	0.8137	-1.741	4.774	4.526	2.178	-0.8826
CCOC(=O)c1ncn2c1CN(C)C(=O)c1cc(F)ccc1-2 [SJ000287880-4, FLUMAZENIL]									5.754	0.9807	-1.521	1.865	-0.5944	-1.15	0.7722	1.517
O=C1Nc2ccc(I)cc2C1=Cc1cc(Br)c(O)c(Br)c1 [SJ000287883-4, GW 5074 | GW5074 | RAF1 KINASE INHIBITOR I | U7401/61/2 | GW5074]									1.257	2.224	-0.3991	1.287	3.135	3.747	1.335	7.111
COc1cc2c(cc1O)CC[C@@H]1[C@@H]2CC[C@]2(C)[C@@H](O)CC[C@@H]12 [SJ000288002-4, 2-METHOXYESTRADIOL | 2-METHOXYESTRADIOL | PANZEM | PULMOLAR | 2-ME | 2-MEOE2 | 2ME2 | NSC-659853 | | 2-METHOXYESTRADIOL | 2-ME | 2-MEOE2 | 2ME2 | NSC-659853 | | 2-METHOXYESTRADIOL (2-MEOE2)]	122.6	95.83	66.58	111	91.74	133.7	99.75	60.77								
COc1cc2c(cc1O)CC[C@@H]1[C@@H]2CC[C@]2(C)[C@@H](O)CC[C@@H]12 [SJ000288002-5, 2-METHOXYESTRADIOL | 2-METHOXYESTRADIOL | PANZEM | PULMOLAR | 2-ME | 2-MEOE2 | 2ME2 | NSC-659853 | | 2-METHOXYESTRADIOL | 2-ME | 2-MEOE2 | 2ME2 | NSC-659853 | | 2-METHOXYESTRADIOL (2-MEOE2)]	96.86	80.21	56.77	94.34	80.44	118	76.13	61.44								
Cc1ccc(=O)n(-c2ccccc2)c1 [SJ000288087-4, PIRFENIDONE]									4.387	-2.099	-0.2811	-1.785	2.774	-5.144	8.387	10.42
CCCCCCCCCCCCCCSCC(=O)O [SJ000288209-4, TETRADECYLTHIOACETIC ACID]									-0.2083	-2.154	-0.6377	1.198	-1.133	-1.764	-0.2387	-0.5942
Clc1cnc(Oc2ccc(Oc3ncc(Cl)cc3Cl)cc2)c(Cl)c1 [SJ000288225-4, TCPOBOP]									-0.7867	-1.704	1.606	1.992	-2.278	-2.209	0.7208	4.243
C/C(=C\c1ccc(C(=O)O)cc1)c1ccc2c(c1)C(C)(C)CCC2(C)C [SJ000288227-4, TTNPB | TTNPB (AROTINOID ACID)]									11.71	8.124	2.308	3.996	8.388	5.715	20.2	0.3991
O=C1Nc2ccccc2/C1=C\c1c(Cl)[nH]c2ccccc12 [SJ000312180-2, CDK1 INHIBITOR]									93.89	78.83	57.06	105.1	82.19	109.3	76.6	68.22
COCC1=C(C(=O)O)N2C(=O)[C@@H](NC(=O)/C(=N\OC)c3csc(N)n3)[C@H]2SC1 [SJ000312312-2, CEFPODOXIME, FREE ACID| R-3763| U-76253 | CEFPODOXIME, FREE ACID| R-3763| U-76253 | (6R,7R)-7-((Z)-2-(2-AMINOTHIAZOL-4-YL)-2-(METHOXYIMINO)ACETAMIDO)-3-(METHOXYMETHYL)-8-OXO-5-THIA-1-AZABICYCLO[4.2.0]OCT-2-ENE-2-CARBOXYLIC ACID]									-1.332	-1.004	-0.4312	-1.66	-1.275	34.96	-2.052	0.005285
C[C@]12CCC(=O)C=C1[C@@H]1C[C@@H]1[C@H]1[C@@H]3[C@@H]4C[C@@H]4[C@@]4(CCC(=O)O4)[C@@]3(C)CC[C@@H]12 [SJ000312356-2, DROSPIRENONE]									0.9318	3.696	-0.6244	3.09	1.327	38.69	3.583	6.784
COc1ccc2nc3cc(Cl)ccc3c(Nc3cc(CN4CCCC4)c(O)c(CN4CCCC4)c3)c2n1 [SJ000518979-1, PYRONARIDINE PHOSPHATE]									102.4	76.7	59.06	115	93.43	87.35	74.19	68.68
Clc1ccc2c(N3CCN(CCCN4CCN(c5ccnc6cc(Cl)ccc56)CC4)CC3)ccnc2c1 [SJ000518980-1, PIPERAQUINE PHOSPHATE]									3.926	-2.593	-2.97	-0.3802	-0.1677	-2.506	0.4168	-8.556
CO[C@H]1C[C@@H]2CC[C@@H](C)[C@@](O)(O2)C(=O)C(=O)N2CCCC[C@H]2C(=O)O[C@H]([C@H](C)C[C@@H]2CC[C@@H](OC(=O)C(C)(CO)CO)[C@H](OC)C2)CC(=O)[C@H](C)/C=C(\C)[C@@H](O)[C@@H](OC)C(=O)[C@H](C)C[C@H](C)/C=C/C=C/C=C/1C [SJ000518987-1, TEMSIROLIMUS | CCI-779 | NSC-683864 | TORISEL | TEMSIROLIMUS (CCI-779, NSC 683864)]									21.7	25.81	9.499	19.45	6.723	14.34	11.74	29.37
